Reference: publication PMC4051601, “Identification of NAD(P)H Quinone Oxidoreductase Activity in Azoreductases from P. aeruginosa: Azoreductases and NAD(P)H Quinone Oxidoreductases Belong to the Same FMN-Dependent Superfamily of Enzymes” (PLoS ONE, 2014)

Assays:
paAzoR1 (PA0785) [1] = target: T1, paAzoR1 (PA0785) (Pseudomonas aeruginosa, UniProt Q9I5F3); assay: X-ray crystallography, […] A; assay type: binding
T1 construct: gene azoR1; pure recombinant protein, expressed and purified as described previously; dimer with FMN
T1 sequence (Q9I5F3 1-212): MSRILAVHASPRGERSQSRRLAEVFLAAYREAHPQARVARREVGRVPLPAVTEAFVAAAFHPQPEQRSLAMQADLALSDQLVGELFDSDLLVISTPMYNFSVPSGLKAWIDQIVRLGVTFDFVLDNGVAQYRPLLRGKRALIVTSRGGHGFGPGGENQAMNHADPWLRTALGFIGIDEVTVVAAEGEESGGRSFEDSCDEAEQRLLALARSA

paAzoR1 (PA0785) [2] = target: T1, paAzoR1 (PA0785); assay: X-ray crystallography, […] A; assay type: binding; conditions: FMN-bound enzyme; one of two active sites; occupancy 0.5; hydrogen bond to Tyr131; co-crystallised with 2 mM ligand, pH 8
paAzoR3 (PA3223) = target: T2, paAzoR3 (PA3223) (Pseudomonas aeruginosa, UniProt Q9HZ17); assay: NADH oxidation at […] nm; assay type: biochemical; conditions: 50 uM quinone, 500 uM NADH, 20 mM Tris-HCl pH 8, 100 mM NaCl, 5% DMSO; only a specific rate given
T2 construct: gene azoR3; pure recombinant protein, expressed and purified as described previously
T2 sequence (Q9HZ17 1-213): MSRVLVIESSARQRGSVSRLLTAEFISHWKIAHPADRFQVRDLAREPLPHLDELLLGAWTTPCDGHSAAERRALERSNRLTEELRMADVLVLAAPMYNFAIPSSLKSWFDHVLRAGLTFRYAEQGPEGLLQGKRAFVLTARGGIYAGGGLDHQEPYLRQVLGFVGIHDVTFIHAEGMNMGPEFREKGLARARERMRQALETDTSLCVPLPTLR

paAzoR1 (PA0785) [3] = target: T1, paAzoR1 (PA0785); assay: NADPH oxidation at […] nm; assay type: biochemical; conditions: 50 uM quinone, 500 uM NADPH, 20 mM Tris-HCl pH 8, 100 mM NaCl, 5% DMSO; only a specific rate given

SMILES: O=C1c2ccccc2C(=O)c2cc(S(=O)(=O)O)ccc21 [AQN, anthraquinone-2-sulphonate]
- X-ray crystallography, 1.8 A (paAzoR1 (PA0785) [1]; FMN-bound enzyme, one of two active sites, pi-stacking on FMN, co-crystallised with 2 mM ligand, pH 8): structures of paAzoR1 bound to two quinone substrates (UQ1 and AQN) have been solved

SMILES: COC1=C(OC)C(=O)C(CC=C(C)C)=C(C)C1=O [UQ1, Coenzyme Q1]
- X-ray crystallography, 2.0 A (paAzoR1 (PA0785) [2]): structures of paAzoR1 bound to two quinone substrates (UQ1 and AQN) have been solved

SMILES: CC1=CC(=O)c2c(O)cccc2C1=O [Plu, Plumbagin]
- NADH oxidation at 340 nm (paAzoR3 (PA3223)): paAzoR3 prefers naphthoquinones e.g. Plu (Fig. 3c)

SMILES: O=C1C=CC(=O)C=C1 [Bzq, Benzoquinone]
- NADPH oxidation at 340 nm (paAzoR1 (PA0785) [3]): paAzoR1 has a preference for benzoquinones e.g. Bzq (Fig. 3a)

SMILES: Cc1cc2nc3c(=O)[nH]c(=O)nc-3n(C[C@H](O)[C@H](O)[C@H](O)COP(=O)(O)O)c2cc1C [FMN]
- X-ray crystallography, 1.8 A (paAzoR1 (PA0785) [1]; structure with AQN, FMN also seen in the UQ1 complex (4N9Q)): AQN also forms π-π stacking interactions with the central ring of FMN
